# Source: ChEMBL document CHEMBL1139603, “Synthesis and structure-activity relationship of 3-phenyl-3H-quinazolin-4-one derivatives as CXCR3 chemokine receptor antagonists” (Bioorg Med Chem Lett, 2005)
# Biological target: T1, C-X-C chemokine receptor type 3 (Homo sapiens, UniProt P49682)
# T1 sequence (P49682 whole entry): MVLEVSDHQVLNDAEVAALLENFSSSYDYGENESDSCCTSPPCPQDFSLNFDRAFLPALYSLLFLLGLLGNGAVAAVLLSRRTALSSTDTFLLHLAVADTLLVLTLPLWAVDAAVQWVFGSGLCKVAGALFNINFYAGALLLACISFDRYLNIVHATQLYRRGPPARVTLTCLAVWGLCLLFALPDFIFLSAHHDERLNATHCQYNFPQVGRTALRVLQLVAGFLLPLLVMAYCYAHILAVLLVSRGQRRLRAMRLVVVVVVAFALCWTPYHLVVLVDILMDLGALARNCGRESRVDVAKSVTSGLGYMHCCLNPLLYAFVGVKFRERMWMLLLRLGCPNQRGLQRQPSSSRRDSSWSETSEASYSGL
# Assay: Inhibitory concentration against […] expressed in human HEK293 cells using [125I]CXCL10 as radioligand
# Format: cell-based
row,SMILES,IC50
1,CCCCCCCCCC(=O)N(CCN(C)C)C(C)c1nc2ccccc2c(=O)n1-c1ccc(C)cc1 (centres undefined),3.1 µM
2,CCCCCCCCCC(=O)N(CCN(C)C)C(C)c1nc2ccccc2c(=O)n1-c1ccc(F)cc1 (centres undefined),3.2 µM
3,CCCCCCCCCC(=O)N(CCN(C)C)C(C)c1nc2ccccc2c(=O)n1-c1ccccc1 (centres undefined),15 µM
4,CCCCCCCCCC(=O)N(CCN(C)C)C(C)c1nc2ccccc2c(=O)n1-c1ccc(C#N)cc1 (centres undefined),0.93 µM
5,CCCCCCCCCC(=O)N(CCN(C)C)C(C)c1nc2ccccc2c(=O)n1-c1cccc(C#N)c1 (centres undefined),5.8 µM
6,CCCCCCCCCC(=O)N(CCN(C)C)C(C)c1nc2ccccc2c(=O)n1-c1ccccc1C#N (centres undefined),10 µM
7,CCCCCCCCCC(=O)N(CCN(C)C)C(C)c1nc2ccccc2c(=O)n1-c1ccc(O)cc1 (centres undefined),> 100 µM
8,CCCCCCCCCC(=O)N(CCN(C)C)C(C)c1nc2ccccc2c(=O)n1-c1ccc(C(F)(F)F)cc1 (centres undefined),> 100 µM
9,CCCCCCCCCC(=O)N(CCN(C)C)C(C)c1nc2ccccc2c(=O)n1-c1ccc(OC)cc1 (centres undefined),3.3 µM
